Measured values from patent US20060009425A1, “Oral formulations of paricalcitol” (priority 2004, published 2006).
Like-named read-outs stand apart in the source and are kept apart here.

Assay: Single and multiple dose pharmacokinetics, moderate to severe chronic renal impairment (Example 4, Table 23)
Type: in vivo, human
Design: AUC0-24 on Study Day 8 vs. AUC0-∞ on Study Day 1, Point Estimate / AUC0-24 on Study Day 8 vs. AUC0-∞ on Study Day 1, 95% Confidence Interval: unit not given beside the values
Conditions: for Cmax / Tmax / half-life / AUC(0-t) / AUC(0-inf) / fraction unbound / concentration at 24 h: human, plasma, oral; for AUC(0-t): read-out: AUC0-24; for concentration at 24 h: Study Day 9, read-out: trough concentration 24 h post dose on Study Day 8
Procedure: Methodology: This was a Phase 1, open-label, single and multiple-dose, multi-center study. A sufficient number of subjects were screened to have approximately 15 subjects with moderate renal impairment (CKD Stage 3) (Group 1, Glomerular Filtration Rate (GFR) of 30-60 mL/min) and approximately 15 subjects with severe renal impairment (CKD Stage 4) (Group 2, GFR <30 mL/min, not requiring dialysis) enrolled in the study. The subjects in moderate renal impairment group received 4 μg paricalcitol capsule on Study Day 1, and 4 μg QD for 6 doses over Study Days 3-8. The subjects in severe renal impairment group received 3 μg paricalcitol capsule on Study Day 1 and 3 μg QD for 6 doses over Study Days 3-8. Each dose of study was taken orally with approximately 180 mL of water at 0800, 30 minutes after breakfast was served.
Plasma concentrations of paricalcitol were determined using a validated liquid chromatography method with tandem mass spectrometric assay method at Abbott Laboratories, Ill.
Pharmacokinetic: Values for the pharmacokinetic parameters of paricalcitol, including the maximum observed plasma concentration (Cmax), the time to Cmax(Tmax), the terminal phase elimination rate constant (β), half life (t1/2), area under the plasma concentration-time curve (AUC), apparent total clearance (CL/F), and apparent volume of distribution (Vdβ/F) were determined using noncompartmental methods. Values of these parameters were determined after both single (first) dose (Study Day 1) and multiple doses (Study Day 8). In addition, minimum observed plasma concentration (Cmin), accumulation index (AI), and degree of fluctuation (DFL) after multiple doses were determined for the dose on Study Day 8 (steady state).
Pharmacokinetic: Point estimates and the corresponding 95% confidence intervals were obtained for central values of the pharmacokinetic parameters for each of the renal impairment groups. Two-sample t-test was performed to compare the pharmacokinetic parameters across the two renal impairment groups on each of Study Days 1 and 8. […] Within the framework of the analysis, the mean trough concentration values on Study Days 6, 7 and 8 were each compared to that at 24 h post Study Day 8 dose.
An analysis of variance (ANOVA) was performed on Tmax, β, and the logarithms of AUC and Cmax to compare the single-dose and steady-state data for each of the renal impairment groups. The same test was also performed for each group for the difference between the natural logarithm of the AUC0-24 on Day 8 and the natural logarithm of the AUC0-∞ on Study Day 1. Then the point estimate and 95% confidence interval for the ratio of the central values (the central value of the AUC0-24 on Study Day 8 to that of the AUC0-∞ on Study Day 1) were obtained by exponentiating the corresponding point estimate for the difference.
Paricalcitol capsules are under development for the prevention and treatment of secondary hyperparathyroidism in chronic kidney disease (CKD). The aim of this open-label, single and multiple dose, multi-center study was to evaluate the safety, and pharmacokinetics (PK) of paricalcitol in CKD Stage 3 (single 4 μg dose on Day 1 and 4 μg QD from Days 3-8) and CKD Stage 4 (single 3 μg dose on Day 1 and 3 μg QD from Days 3-8) subjects.

[1] = 3 ug, severe renal impairment, 3 μg QD, Study Day 8
[2] = 3 ug, severe renal impairment, 3 μg, Study Day 1
[3] = 4 ug, moderate renal impairment, 4 μg QD, Study Day 8
[4] = 4 ug, moderate renal impairment, 4 μg, Study Day 1
[5] = 4 μg, moderate renal impairment
[6] = moderate renal impairment, 4 μg QD, Study Day 8
[7] = moderate renal impairment, 4 μg, Study Day 1
[8] = severe renal impairment, 3 μg QD, Study Day 8
[9] = severe renal impairment, 3 μg, Study Day 1

In the case of `C[C@H](/C=C/[C@H](C)C(C)(C)O)[C@H]1CC[C@H]2/C(=C/C=C3C[C@@H](O)C[C@H](O)C3)CCC[C@]12C` [Paricalcitol, 19-nor-1α,3β,25-trihydroxy-9,10-secoergosta-5(Z); 7(E),22(E)-triene], the Cmax [1] is reported as 0.097 ± 0.023 ng/mL, the Tmax [1] is reported as 9.1 ± 5.5 h and the half-life (3 ug, severe renal impairment, 3 μg QD, Study Day 8, harmonic mean ± pseudo-standard deviation, read-out: t1/2 (converted)) is reported as 1380 ± 338 min. For the same compound, the AUC(0-t) [1] was 1.75 ± 0.421 ng·h/mL, the AUC(0-inf) [2] was 2.13 ± 0.733 ng·h/mL and the Cmax [2] was 0.065 ± 0.012 ng/mL. The Tmax [2] was 5.9 ± 3.6 h, the half-life (3 ug, severe renal impairment, 3 μg, Study Day 1, harmonic mean ± pseudo-standard deviation, read-out: t1/2 (converted)) was 1180 ± 431 min and the AUC(0-t) [2] was 1.02 ± 0.23 ng·h/mL. The fraction unbound (3 μg, severe renal impairment) was 0.0008 ± 0.0002, the concentration at 24 h (3 μg, severe renal impairment) was 0.057 ± 0.014 ng/mL and the Cmax [3] was 0.155 ± 0.057 ng/mL. It also gave a Tmax [3] of 4.2 ± 1.9 h, a half-life (4 ug, moderate renal impairment, 4 μg QD, Study Day 8, harmonic mean ± pseudo-standard deviation, read-out: t1/2 (converted)) of 932 ± 193 min and an AUC(0-t) [3] of 2.22 ± 0.701 ng·h/mL. It also gave an AUC(0-inf) [4] of 2.42 ± 0.614 ng·h/mL, a Cmax [4] of 0.113 ± 0.036 ng/mL and a Tmax [4] of 4.7 ± 2.5 h. For the same compound, the half-life (4 ug, moderate renal impairment, 4 μg, Study Day 1, harmonic mean ± pseudo-standard deviation, read-out: t1/2 (converted)) was 1010 ± 159 min, the AUC(0-t) [4] was 1.45 ± 0.407 ng·h/mL and the fraction unbound [5] was 0.0008 ± 0.0005. For the same compound, the concentration at 24 h [5] was 0.057 ± 0.019 ng/mL, the half-life (moderate and severe renal impairment (CKD Stage 3 and 4) subjects, read-out: mean half-life) was 960 to 1380 min and the “steady state essentially reached by” value (moderate and severe renal impairment subjects, QD dosing) was at most 6 Study Day. The “AUC0-24 on Study Day 8 vs. AUC0-∞ on Study Day 1, 95% Confidence Interval” value (moderate renal impairment) was 0.8150-0.9896, the “AUC0-24 on Study Day 8 vs. AUC0-∞ on Study Day 1, Point Estimate” value (moderate renal impairment) was 0.8981 and the CL/F [6] was 2.014 ± 0.774 L/h. The Cmax/Dose [6] was 0.039 ± 0.014 ng/mL/µg, the Cmin [6] was 0.047 ± 0.018 ng/mL and the “DFL (degree of fluctuation)” value [6] was 116.77 ± 35.24%. The Vdβ/F [6] was 46.76 ± 19.35 L, the β [6] was 0.045 ± 0.009 h−^1 and the CL/F [7] was 1.766 ± 0.505 L/h. The Cmax/Dose [7] was 0.028 ± 0.009 ng/mL/µg, the Vdβ/F [7] was 43.72 ± 14.45 L and the β [7] was 0.041 ± 0.007 h−^1. For the same compound, the pre-dose trough concentration (moderate renal impairment, Study Day 6) was 0.050 ± 0.016 ng/mL, the pre-dose trough concentration (moderate renal impairment, Study Day 7) was 0.053 ± 0.014 ng/mL and the pre-dose trough concentration (moderate renal impairment, Study Day 8) was 0.053 ± 0.019 ng/mL. For the same compound, the “AUC0-24 on Study Day 8 vs. AUC0-∞ on Study Day 1, 95% Confidence Interval” value (severe renal impairment) was 0.7612-0.9227, the “AUC0-24 on Study Day 8 vs. AUC0-∞ on Study Day 1, Point Estimate” value (severe renal impairment) was 0.8380 and the CL/F [8] was 1.751 ± 0.388 L/h. For the same compound, the Cmax/Dose [8] was 0.032 ± 0.008 ng/mL/µg, the Cmin [8] was 0.049 ± 0.010 ng/mL and the “DFL (degree of fluctuation)” value [8] was 64.86 ± 17.79%. The Vdβ/F [8] was 61.61 ± 20.34^¥ L, the β [8] was 0.030 ± 0.007 h−^1 and the CL/F [9] was 1.517 ± 0.359 L/h. The Cmax/Dose [9] was 0.022 ± 0.004 ng/mL/µg, the Vdβ/F [9] was 46.40 ± 12.45 L and the β [9] was 0.035 ± 0.013 h−^1. It also gave a pre-dose trough concentration (severe renal impairment, Study Day 6) of 0.051 ± 0.011 ng/mL, a pre-dose trough concentration (severe renal impairment, Study Day 7) of 0.050 ± 0.015 ng/mL and a pre-dose trough concentration (severe renal impairment, Study Day 8) of 0.056 ± 0.012 ng/mL.
